Results reported in patent US20230167114A1, “MACROCYCLIC JAK INHIBITOR AND USE THEREOF” (Biopolar Hongye (Guangdong) Pharmaceutical Co., Ltd., priority 2020, published 2023).

Columns and labels:
Format in all cases: biochemical
JAK1 = JAK1 (Homo sapiens, UniProt P23458); assay: JAK kinase activity, homogeneous time-resolved fluorescence (JAK1 reaction system); conditions: ATP 2 μM, JAK1 protein 0.2 ng/μL; read-out: JAK 1 activity
Procedure: (§1) The activity measurement method of JAK kinase was to use homogeneous time-resolved fluorescence technique. The reaction was performed in 384 shallow well plates with a total reaction volume of 10 μL. The mixture of kinase protein, compound, ATP and substrate was carried out in a reaction buffer of 50 mM Hepes (pH7.0), NaN3 0.02%, BSA 0.01%, 0.1 mM orthocanadate, 5 mM MgCl2, and 1 mM DTT. After reacting for 1 hour, antibody capable of recognizing substrate phosphorylation and dye XL-615 and detection buffer (Cisbio) containing EDTA were added to the system. The reaction signal of kinase was detected by PE company's porous plate detector. The parameter settings were excitation light at 320 nm, emission light at 615 nm and 665 nm. The activity of JAK is indirectly reflected by the signal ratio of 665 nm and 615 nm. In the reaction, the background well without enzyme and the total enzyme activity well without compound were set.
(§2) The IC50 value of the compound inhibiting protein was obtained by the formula: Y=100/(1+10^((Log IC50−X)*HillSlope)).
In JAK1 reaction system, the concentration of ATP was 2 μM, and the concentration of JAK1 protein was 0.2 ng/μL.

JAK2 = JAK2 (Homo sapiens, UniProt O60674); assay: JAK kinase activity, homogeneous time-resolved fluorescence (JAK2 reaction system); conditions: ATP 2 μM, JAK2 protein 0.01 ng/μL
Procedure: as §1, §2
In JAK2 reaction system, the concentration of ATP was 2 μM, and the concentration of JAK2 protein was 0.01 ng/μL.

JAK3 = target: T1, JAK3 (Homo sapiens, UniProt P52333); assay: JAK kinase activity, homogeneous time-resolved fluorescence (JAK3 reaction system); conditions: ATP 2 μM, JAK3 protein 0.04 ng/μL; read-out: JAK 3 activity
T1 sequence (P52333 1-1124): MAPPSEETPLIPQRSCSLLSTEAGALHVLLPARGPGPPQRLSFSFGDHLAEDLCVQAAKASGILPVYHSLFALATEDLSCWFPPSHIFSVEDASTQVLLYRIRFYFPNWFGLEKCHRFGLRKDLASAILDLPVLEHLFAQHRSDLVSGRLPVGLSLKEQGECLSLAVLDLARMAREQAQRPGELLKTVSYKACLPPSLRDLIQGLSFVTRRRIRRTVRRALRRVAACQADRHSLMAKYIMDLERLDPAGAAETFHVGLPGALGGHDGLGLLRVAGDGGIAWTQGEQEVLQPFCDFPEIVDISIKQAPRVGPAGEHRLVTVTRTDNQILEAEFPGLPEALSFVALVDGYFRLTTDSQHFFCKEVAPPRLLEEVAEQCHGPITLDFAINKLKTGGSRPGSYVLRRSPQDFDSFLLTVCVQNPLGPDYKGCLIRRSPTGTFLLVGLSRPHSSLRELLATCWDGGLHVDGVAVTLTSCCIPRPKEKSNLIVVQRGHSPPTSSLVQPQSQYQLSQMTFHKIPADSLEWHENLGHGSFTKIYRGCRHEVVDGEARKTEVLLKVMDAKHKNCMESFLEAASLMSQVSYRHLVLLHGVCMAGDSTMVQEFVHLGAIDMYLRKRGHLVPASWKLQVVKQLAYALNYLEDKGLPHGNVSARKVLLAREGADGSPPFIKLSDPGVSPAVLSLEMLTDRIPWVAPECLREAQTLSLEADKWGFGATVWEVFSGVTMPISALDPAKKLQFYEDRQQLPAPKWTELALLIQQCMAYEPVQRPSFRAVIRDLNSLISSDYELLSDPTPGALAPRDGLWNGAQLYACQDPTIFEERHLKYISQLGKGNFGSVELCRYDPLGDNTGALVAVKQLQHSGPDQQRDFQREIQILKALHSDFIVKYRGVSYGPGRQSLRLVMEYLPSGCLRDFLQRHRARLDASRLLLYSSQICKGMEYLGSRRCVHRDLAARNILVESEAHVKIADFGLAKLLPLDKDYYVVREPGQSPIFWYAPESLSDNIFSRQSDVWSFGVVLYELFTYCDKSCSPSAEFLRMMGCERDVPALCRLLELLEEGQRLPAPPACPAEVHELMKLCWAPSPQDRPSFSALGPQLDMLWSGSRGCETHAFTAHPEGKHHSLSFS
Procedure: as §1, §2
In JAK3 reaction system, the concentration of ATP was 2 μM, and the concentration of JAK3 protein was 0.04 ng/μL.

TYK2 = TYK2 (Homo sapiens, UniProt P29597); assay: JAK kinase activity, homogeneous time-resolved fluorescence (TYK2 reaction system); conditions: ATP 2 μM, TYK2 protein 0.2 ng/μL; read-out: TYK 2 activity
Procedure: as §1, §2
In TYK2 reaction system, the concentration of ATP was 2 μM and the concentration of TYK2 protein was 0.2 ng/μL.

Chain of JAK2 (O60674 whole entry): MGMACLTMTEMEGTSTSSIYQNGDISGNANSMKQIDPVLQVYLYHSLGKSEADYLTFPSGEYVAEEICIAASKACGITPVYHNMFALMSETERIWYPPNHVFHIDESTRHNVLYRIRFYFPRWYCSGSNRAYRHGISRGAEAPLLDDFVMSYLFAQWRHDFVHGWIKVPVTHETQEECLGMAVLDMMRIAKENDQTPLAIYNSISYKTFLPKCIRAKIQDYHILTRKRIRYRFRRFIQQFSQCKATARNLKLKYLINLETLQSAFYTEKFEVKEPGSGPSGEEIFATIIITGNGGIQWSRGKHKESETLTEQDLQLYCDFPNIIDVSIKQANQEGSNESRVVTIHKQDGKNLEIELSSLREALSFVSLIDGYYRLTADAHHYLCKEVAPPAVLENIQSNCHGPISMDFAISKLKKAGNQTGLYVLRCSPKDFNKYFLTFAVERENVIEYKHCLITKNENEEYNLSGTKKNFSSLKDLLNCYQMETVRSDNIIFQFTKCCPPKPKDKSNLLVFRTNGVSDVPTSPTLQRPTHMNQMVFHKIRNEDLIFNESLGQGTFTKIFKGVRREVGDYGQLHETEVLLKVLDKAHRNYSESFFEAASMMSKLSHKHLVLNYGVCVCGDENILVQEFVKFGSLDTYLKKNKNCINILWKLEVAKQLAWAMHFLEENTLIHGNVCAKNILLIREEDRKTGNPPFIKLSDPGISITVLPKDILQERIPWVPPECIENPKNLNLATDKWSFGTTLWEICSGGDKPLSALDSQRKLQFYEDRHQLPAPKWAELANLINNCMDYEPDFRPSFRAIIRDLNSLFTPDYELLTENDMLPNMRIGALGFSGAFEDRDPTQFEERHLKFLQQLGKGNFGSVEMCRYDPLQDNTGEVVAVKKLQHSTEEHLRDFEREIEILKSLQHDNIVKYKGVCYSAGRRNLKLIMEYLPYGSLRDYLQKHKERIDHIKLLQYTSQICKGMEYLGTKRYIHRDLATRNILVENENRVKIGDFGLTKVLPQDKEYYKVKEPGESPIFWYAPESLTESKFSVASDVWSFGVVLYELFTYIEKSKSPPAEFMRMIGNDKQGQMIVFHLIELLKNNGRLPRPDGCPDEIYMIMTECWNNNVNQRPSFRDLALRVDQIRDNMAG
Chain of TYK2 (P29597 whole entry): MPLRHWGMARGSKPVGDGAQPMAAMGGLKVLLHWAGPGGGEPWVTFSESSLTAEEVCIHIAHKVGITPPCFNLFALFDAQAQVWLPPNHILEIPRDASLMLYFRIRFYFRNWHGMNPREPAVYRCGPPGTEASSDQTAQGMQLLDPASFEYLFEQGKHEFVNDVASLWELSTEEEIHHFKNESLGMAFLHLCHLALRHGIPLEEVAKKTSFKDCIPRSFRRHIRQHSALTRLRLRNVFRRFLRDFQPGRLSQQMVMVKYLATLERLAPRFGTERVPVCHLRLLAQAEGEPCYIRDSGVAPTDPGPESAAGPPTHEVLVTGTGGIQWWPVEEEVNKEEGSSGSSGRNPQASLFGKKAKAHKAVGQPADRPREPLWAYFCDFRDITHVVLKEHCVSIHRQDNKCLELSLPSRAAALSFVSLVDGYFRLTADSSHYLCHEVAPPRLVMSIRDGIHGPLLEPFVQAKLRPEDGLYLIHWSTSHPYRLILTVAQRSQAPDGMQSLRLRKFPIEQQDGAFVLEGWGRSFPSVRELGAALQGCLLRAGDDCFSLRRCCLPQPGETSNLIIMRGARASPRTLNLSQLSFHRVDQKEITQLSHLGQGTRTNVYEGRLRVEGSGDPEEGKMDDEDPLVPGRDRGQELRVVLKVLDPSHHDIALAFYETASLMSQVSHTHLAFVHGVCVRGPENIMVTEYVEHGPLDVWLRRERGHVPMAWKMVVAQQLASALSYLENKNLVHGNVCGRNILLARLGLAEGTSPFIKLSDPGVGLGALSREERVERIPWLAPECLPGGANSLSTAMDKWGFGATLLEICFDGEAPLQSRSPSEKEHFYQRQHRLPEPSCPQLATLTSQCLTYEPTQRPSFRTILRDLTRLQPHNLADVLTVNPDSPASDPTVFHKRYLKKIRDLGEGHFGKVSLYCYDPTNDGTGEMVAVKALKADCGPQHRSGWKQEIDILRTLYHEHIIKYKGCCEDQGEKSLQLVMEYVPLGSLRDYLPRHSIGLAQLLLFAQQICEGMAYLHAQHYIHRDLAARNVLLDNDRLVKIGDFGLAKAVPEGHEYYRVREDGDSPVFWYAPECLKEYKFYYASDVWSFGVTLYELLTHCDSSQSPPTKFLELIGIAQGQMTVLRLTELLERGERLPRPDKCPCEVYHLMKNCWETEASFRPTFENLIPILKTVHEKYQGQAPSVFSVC
Chain of JAK1 (P23458 whole entry): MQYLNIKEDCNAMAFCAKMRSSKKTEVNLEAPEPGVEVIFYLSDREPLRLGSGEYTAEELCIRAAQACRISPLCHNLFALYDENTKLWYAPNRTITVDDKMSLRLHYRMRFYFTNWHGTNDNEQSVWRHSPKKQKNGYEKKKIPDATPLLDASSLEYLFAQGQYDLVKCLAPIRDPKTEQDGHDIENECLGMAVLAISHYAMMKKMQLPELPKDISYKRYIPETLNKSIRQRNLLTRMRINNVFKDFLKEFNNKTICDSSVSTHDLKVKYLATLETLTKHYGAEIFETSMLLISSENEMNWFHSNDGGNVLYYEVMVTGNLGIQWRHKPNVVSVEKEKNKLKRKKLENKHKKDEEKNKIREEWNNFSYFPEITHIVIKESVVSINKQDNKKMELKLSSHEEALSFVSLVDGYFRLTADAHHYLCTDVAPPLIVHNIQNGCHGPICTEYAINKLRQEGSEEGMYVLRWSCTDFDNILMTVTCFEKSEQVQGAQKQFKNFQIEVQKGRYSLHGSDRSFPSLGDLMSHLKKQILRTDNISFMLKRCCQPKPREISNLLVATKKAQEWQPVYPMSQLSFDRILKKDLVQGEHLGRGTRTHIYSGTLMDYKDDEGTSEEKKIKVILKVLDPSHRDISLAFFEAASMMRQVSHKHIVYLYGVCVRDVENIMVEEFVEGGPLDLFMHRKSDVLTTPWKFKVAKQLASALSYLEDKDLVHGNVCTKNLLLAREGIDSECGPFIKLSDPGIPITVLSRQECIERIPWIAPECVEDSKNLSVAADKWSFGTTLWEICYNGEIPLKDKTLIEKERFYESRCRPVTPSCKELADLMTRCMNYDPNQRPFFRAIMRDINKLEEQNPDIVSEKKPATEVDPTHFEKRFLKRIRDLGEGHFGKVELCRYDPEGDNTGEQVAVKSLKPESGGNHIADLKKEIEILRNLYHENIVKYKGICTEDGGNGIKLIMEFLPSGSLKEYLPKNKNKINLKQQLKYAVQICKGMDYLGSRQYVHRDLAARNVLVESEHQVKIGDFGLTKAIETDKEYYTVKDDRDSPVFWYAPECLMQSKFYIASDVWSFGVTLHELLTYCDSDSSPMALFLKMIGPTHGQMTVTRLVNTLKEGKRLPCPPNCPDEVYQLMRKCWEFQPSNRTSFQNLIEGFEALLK

| SMILES | IC50 (JAK1) | IC50 (JAK2) | IC50 (JAK3) | IC50 (TYK2) |
| --- | --- | --- | --- | --- |
| COc1cnc2nc1NCCCCCNC(=O)c1ccc(cc1)-c1cnc(F)c(c1)N2 [Compound 5, 2^6-fluoro-4^5-methoxy-3,5,11-triaza-4(2,4)-pyrimidina-2(3,5)-pyridina-1(1,4)-benzenacyclododecaphan-12-one] | 1000 to 10000 nM | 1000 to 10000 nM | 1000 to 10000 nM | > 10000 nM |
| Cc1cnc2nc1NCCCCCCNC(=O)c1ccc(cc1F)-c1cnc(F)c(c1)N2 [Compound 13, I^3,2^6-difluoro-4^5-methyl-3,5,12-triaza-4(2,4)-pyrimidina-2(3,5)-pyridina-1(1,4)-benzenacyclotridecaphan-13-one] | 101 to 1000 nM | 101 to 1000 nM | 1000 to 10000 nM | > 10000 nM |
| Cc1cnc2nc1NCCCCCNC(=O)c1ccc(cc1S(C)(=O)=O)-c1cnc(F)c(c1)N2 [Compound 20, 2^6-fluoro-4^5-methyl-1^3-methylsulfonyl-3,5,11-triaza-4(2,4)-pyrimidina-2(3,5)-pyridina-1(1,4)-benzenacyclododecaphan-12-one] | 11 to 100 nM | 1000 to 10000 nM | 1000 to 10000 nM | > 10000 nM |
| Cc1cnc2nc1Nc1cccc(c1)CCNC(=O)c1ccc(cc1S(C)(=O)=O)-c1cnc(F)c(c1)N2 [Compound 24, 2^6-fluoro-4^5-methyl-1^3-(methylsulfonyl)-3,5,9-triaza-4(2,4)-pyrimidina-2(3,5)-pyridina-1(1,4),6(1,3)-dibenzenacyclodecaphan-10-one] | < 10 nM | < 10 nM | 11 to 100 nM | 101 to 1000 nM |
| Cc1cnc2nc1NCCCCCNC(=O)c1c(F)cc(cc1F)-c1cnc(F)c(c1)N2 [Compound 39, 1^3,1^5,2^6-trifluoro-4^5-methyl-3,5,11-triaza-4(2,4)-pyrimidina-2(3,5)-pyridina-1(1,4)-benzenacyclododecaphan-12-one] | 1000 to 10000 nM | 101 to 1000 nM | 1000 to 10000 nM | > 10000 nM |
| Cc1cnc2nc1NCCCCCNC(=O)c1ccc(cc1F)-c1cnc(F)c(c1)N2 [Compound 6, 1^3,2^6-difluoro-4^5-methyl-3,5,11-triaza-4(2,4)-pyrimidina-2(3,5)-pyridina-1(1,4)-benzenacyclododecaphan-12-one] | 11 to 100 nM | 101 to 1000 nM | 101 to 1000 nM | 1000 to 10000 nM |
| Cc1cnc2nc1NCCCCCCC(=O)N1CCN(CC1)c1cnc(F)c(c1)N2 [Compound 2, 2^6-fluoro-4^5-methyl-3,5-diaza-4(2,4)-pyrimidina-1(1,4)-piperazina-2(3,5)-pyridinacyclododecaphan-12-one] | 101 to 1000 nM | 101 to 1000 nM | 1000 to 10000 nM | 1000 to 10000 nM |
| Cc1cnc2nc1NCCCCCNC(=O)c1ccc(cc1[N+](=O)[O-])-c1cnc(F)c(c1)N2 [Compound 10, 2^6-fluoro-4^5-methyl-1^3-nitro-3,5,11-triaza-4(2,4)-pyrimidina-2(3,5)-pyridina-1(1,4)-benzenacydododecaphan-12-one] | 11 to 100 nM | 101 to 1000 nM | 1000 to 10000 nM | 1000 to 10000 nM |
| CNC(=O)c1cc2ccc1C(=O)NCCCCCNc1nc(ncc1C)Nc1cc-2cnc1F [Compound 40, 2^6-fluoro-N,4^5-dimethyl-12-oxo-3,5,11-triaza-4(2,4)-pyrimidina-2(3,5)-pyridina-1(1,4)-benzenacyclododecaphane-1^3-formamide] | 101 to 1000 nM | 1000 to 10000 nM | 1000 to 10000 nM | > 10000 nM |
| Cc1cnc2nc1Nc1cccc(c1)CCCNC(=O)c1ccc(cc1C(=O)O)-c1cnc(F)c(c1)N2 [Compound 37, 2^6-fluoro-4^5-methyl-11-oxo-3,5,10-triaza-4(2,4)-pyrimidina-2(3,5)-pyridina-1(1,4),6(1,3)-dibenzenacycloundecaphan-1^3 - formic acid] | 11 to 100 nM | 11 to 100 nM | 101 to 1000 nM | 1000 to 10000 nM |
| Cc1cnc2nc1Nc1cc(ccc1F)CCNC(=O)c1ccc(cc1S(C)(=O)=O)-c1cnc(F)c(c1)N2 [Compound 29, 2^6,6^6-difluoro-4^5-methyl-1^3(methylsulfonyl)-3,5,9-triaza-4(2,4)-pyrimidina-2(3,5)-pyridina-1(1,4),6(1,3)-dibenzenacyclodecaphan-10-one] | 11 to 100 nM | 101 to 1000 nM | 1000 to 10000 nM | > 10000 nM |
| O=C1NCCOCc2cccc(c2)Nc2nc(ncc2F)Nc2cc(cnc2F)-c2ccc1cc2 [Compound 16, 2^6,4^5-difluoro-oxa-3,5,11-triaza-4(2,4)-pyrimidina-2(3,5)-pyridina-1(1,4),6(1,3)-dibenzenacyclododecaphan-12-one] | 11 to 100 nM | 11 to 100 nM | 11 to 100 nM | 1000 to 10000 nM |
| Cc1cnc2nc1Nc1cc(ccc1F)CCCNC(=O)c1ncc(cc1F)-c1cnc(F)c(c1)N2 [Compound 45, 1^3,2^6,6^6-trifluoro-4^5-methyl-3,5,10-triaza-4(2,4)-pyrimidina-1(5,2),2(3,5)-bipyridina-6(1,3)-benzenacycloundecaphan-11-one] | 11 to 100 nM | 11 to 100 nM | 101 to 1000 nM | 1000 to 10000 nM |
| Cc1cnc2nc1Nc1cccc(c1)CCCNC(=O)c1ccc(cc1[N+](=O)[O-])-c1cnc(F)c(c1)N2 [Compound 38, 2^6-fluoro-4^5-methyl-1^3-nitro-3,5,10-triaza-4(2,4)-pyrimidina-2(3,5)-pyridina-1(1,4),6(1,3)-dibenzenacycloundecaphan-11-one] | < 10 nM | < 10 nM | 11 to 100 nM | 101 to 1000 nM |
| Cc1cnc2nc1Nc1cccc(c1)CCNC(=O)c1ccc(cc1)-c1cnc(F)c(c1)N2 [Compound 22, 2^6-fluoro-4^5-methyl-3,5,9-triaza-4(2,4)-pyrimidina-2(3,5)-pyridina-1(1,4),6(1,3)-dibenzenacyclodecaphan-10-one] | < 10 nM | < 10 nM | < 10 nM | 11 to 100 nM |
| Cc1cnc2nc1NCCCCCNC(=O)c1ccc(cc1C(=O)NCc1ccccc1)-c1cnc(F)c(c1)N2 [Compound 41, N-benzyl-2^6-fluoro-4^5-methyl-12-oxo-3,5,11-triaza-4(2,4)-pyrimidina-2(3,5)-pyridina-1(1,4)-benzenacyclododecaphane-1^3-formamide] | 1000 to 10000 nM | 1000 to 10000 nM | 1000 to 10000 nM | > 10000 nM |
| Cc1cnc2nc1Nc1ccccc1CCNC(=O)c1ccc(cc1F)-c1cnc(F)c(c1)N2 [Compound 30, 1^3,6^6-difluoro-4^5-methyl-1^3-3,5,9-triaza-4(2,4)-pyrimidina-1(5,2),2(3,5)-dipyridina-6(1,2)-benzenacyclodecaphan-10-one] | 11 to 100 nM | 11 to 100 nM | 101 to 1000 nM | 1000 to 10000 nM |
| Cc1cnc2nc1NCCCCCNC(=O)c1ccc(cc1)-c1cnc(F)c(c1)N2 [Compound 1, 2^6-fluoro-4^5-methyl-3,5,11-triaza-4 (2,4)-pyrimidina-2(3,5)-pyridina-1(1,4)-benzenacyclododecaphan-12-one] | 101 to 1000 nM | 1000 to 10000 nM | 1000 to 10000 nM | > 10000 nM |
